Patent US20230310428A1, “EGFR INHIBITOR AND PREPARATION METHOD AND USE THEREOF” (HONGYUN BIOTECH CO., LTD., priority 2020, published 2023)
Where two headings read alike, the source gives them in different places.

Legend:
Experiment in all cases: Growth inhibitory activity of compounds on BaF3 cell lines stably transfected with kinase (MTS, 48 h)
Assay type in all cases: cell-based
[1] = biological target: T1, various mutants of kinase EGFR (BaF3 cell lines stably transfected with kinase) (Homo sapiens, UniProt P00533)
T1 construct: other: BaF3 cells stably transfected with EGFR Δ19Del; MTS, 48 h; other: BaF3 cell line stably transfected with EGFR Δ19Del
Outline: (§1)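 BaF3 cells stably transfected with EGFR mutants were exposed for 48 h at 37°C to 8 compound concentrations (top 10 µM, 1/3 dilutions, 0.1% DMSO). Growth was read by MTS at 490 nm after 1-4 h, in duplicate; IC50 was derived from inhibition rates versus DMSO control.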

[2] = biological target: T2, various mutants of kinase EGFR (BaF3 cell lines stably transfected with kinase) (Homo sapiens, UniProt P00533, C797S/L858R/T790M)
T2 construct: expressed in transfected cells; host or cells: BaF3
Outline: as §1

[3] = biological target: T3, various mutants of kinase EGFR (BaF3 cell lines stably transfected with kinase) (Homo sapiens, UniProt P00533, L858R)
T3 construct: expressed in transfected cells; host or cells: BaF3
Outline: as §1

[4] = biological target: T4, various mutants of kinase EGFR (BaF3 cell lines stably transfected with kinase) (Homo sapiens, UniProt P00533, L858R/T790M)
T4 construct: expressed in transfected cells; host or cells: BaF3
Outline: as §1

[5] = biological target: T5, various mutants of kinase EGFR (BaF3 cell lines stably transfected with kinase) (Homo sapiens, UniProt P00533, T790M/C797S, form not given)
T5 construct: other: BaF3 cells stably transfected with EGFR Δ19Del/T790M/C797S; MTS, 48; other: BaF3 cell line stably transfected with EGFR Δ19Del/T790M/C7
Outline: as §1

[6] = biological target: T6, various mutants of kinase EGFR (BaF3 cell lines stably transfected with kinase) (Homo sapiens, UniProt P00533, T790M, form not given)
T6 construct: other: BaF3 cells stably transfected with EGFR Δ19Del/T790M; MTS, 48 h; other: BaF3 cell line stably transfected with EGFR Δ19Del/T790M; MTS, 48
Outline: as §1

[7] = BaF3 cells stably transfected with EGFR Δ19Del, read-out: IC50, growth inhibition, Δ19Del
[8] = BaF3 cells stably transfected with EGFR L858R/T790M/C797S, read-out: IC50, growth inhibition, L858R/T790M/C797S
[9] = BaF3 cells stably transfected with EGFR L858R, read-out: IC50, growth inhibition, L858R
[10] = BaF3 cells stably transfected with EGFR L858R/T790M, read-out: IC50, growth inhibition, L858R/T790M
[11] = BaF3 cells stably transfected with EGFR Δ19Del/T790M/C797S, read-out: IC50, growth inhibition, Δ19Del/T790M/C797S
[12] = BaF3 cells stably transfected with EGFR Δ19Del/T790M, read-out: IC50, growth inhibition, Δ19Del/T790M
[13] = BaF3 cell line stably transfected with EGFR Δ19Del, read-out: Δ19Del growth inhibitory activity IC50
[14] = BaF3 cell line stably transfected with EGFR L858R/T790M/C797S, read-out: L858R/T790M/ C797S growth inhibitory activity IC50
[15] = BaF3 cell line stably transfected with EGFR L858R, read-out: L858R growth inhibitory activity IC50
[16] = BaF3 cell line stably transfected with EGFR L858R/T790M, read-out: L858R/ T790M growth inhibitory activity IC50
[17] = BaF3 cell line stably transfected with EGFR Δ19Del/T790M/C797S, read-out: Δ19Del/T790M/ C797S growth inhibitory activity IC50
[18] = BaF3 cell line stably transfected with EGFR Δ19Del/T790M, read-out: Δ19Del/ T790M growth inhibitory activity IC50

T4 sequence (P00533 25-1210 T790M/L858R): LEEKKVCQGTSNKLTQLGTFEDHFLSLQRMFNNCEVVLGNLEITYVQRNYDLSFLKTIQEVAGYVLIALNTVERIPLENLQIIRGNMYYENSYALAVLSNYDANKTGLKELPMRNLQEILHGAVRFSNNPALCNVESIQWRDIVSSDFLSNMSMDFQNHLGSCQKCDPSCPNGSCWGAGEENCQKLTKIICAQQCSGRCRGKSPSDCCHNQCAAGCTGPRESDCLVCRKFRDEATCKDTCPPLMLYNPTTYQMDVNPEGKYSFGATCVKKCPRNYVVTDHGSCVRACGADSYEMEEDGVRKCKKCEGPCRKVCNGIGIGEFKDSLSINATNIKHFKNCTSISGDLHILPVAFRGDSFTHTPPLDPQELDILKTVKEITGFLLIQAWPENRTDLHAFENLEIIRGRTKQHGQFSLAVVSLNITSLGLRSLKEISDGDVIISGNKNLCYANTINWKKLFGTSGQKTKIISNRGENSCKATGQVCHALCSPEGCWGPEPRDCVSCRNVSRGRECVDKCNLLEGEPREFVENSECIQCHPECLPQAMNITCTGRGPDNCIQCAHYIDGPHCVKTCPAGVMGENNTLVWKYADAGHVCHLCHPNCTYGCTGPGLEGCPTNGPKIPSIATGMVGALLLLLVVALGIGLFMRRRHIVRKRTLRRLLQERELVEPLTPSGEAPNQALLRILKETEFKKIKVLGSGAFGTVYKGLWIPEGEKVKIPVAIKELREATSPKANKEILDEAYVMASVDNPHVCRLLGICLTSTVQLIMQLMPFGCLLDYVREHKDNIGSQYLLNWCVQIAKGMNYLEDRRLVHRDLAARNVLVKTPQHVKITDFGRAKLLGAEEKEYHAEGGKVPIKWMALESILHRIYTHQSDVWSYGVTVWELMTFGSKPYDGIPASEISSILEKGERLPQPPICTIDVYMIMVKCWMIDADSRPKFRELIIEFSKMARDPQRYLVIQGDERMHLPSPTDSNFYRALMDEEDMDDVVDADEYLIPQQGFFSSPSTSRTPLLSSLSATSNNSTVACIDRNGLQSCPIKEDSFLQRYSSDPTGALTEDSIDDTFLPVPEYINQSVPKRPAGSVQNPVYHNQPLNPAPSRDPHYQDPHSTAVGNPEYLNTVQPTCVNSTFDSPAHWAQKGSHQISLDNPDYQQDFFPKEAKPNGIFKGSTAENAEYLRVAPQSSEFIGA
T6 sequence (P00533 with tags, fused parts or gaps DEL746-750/T790M, form open): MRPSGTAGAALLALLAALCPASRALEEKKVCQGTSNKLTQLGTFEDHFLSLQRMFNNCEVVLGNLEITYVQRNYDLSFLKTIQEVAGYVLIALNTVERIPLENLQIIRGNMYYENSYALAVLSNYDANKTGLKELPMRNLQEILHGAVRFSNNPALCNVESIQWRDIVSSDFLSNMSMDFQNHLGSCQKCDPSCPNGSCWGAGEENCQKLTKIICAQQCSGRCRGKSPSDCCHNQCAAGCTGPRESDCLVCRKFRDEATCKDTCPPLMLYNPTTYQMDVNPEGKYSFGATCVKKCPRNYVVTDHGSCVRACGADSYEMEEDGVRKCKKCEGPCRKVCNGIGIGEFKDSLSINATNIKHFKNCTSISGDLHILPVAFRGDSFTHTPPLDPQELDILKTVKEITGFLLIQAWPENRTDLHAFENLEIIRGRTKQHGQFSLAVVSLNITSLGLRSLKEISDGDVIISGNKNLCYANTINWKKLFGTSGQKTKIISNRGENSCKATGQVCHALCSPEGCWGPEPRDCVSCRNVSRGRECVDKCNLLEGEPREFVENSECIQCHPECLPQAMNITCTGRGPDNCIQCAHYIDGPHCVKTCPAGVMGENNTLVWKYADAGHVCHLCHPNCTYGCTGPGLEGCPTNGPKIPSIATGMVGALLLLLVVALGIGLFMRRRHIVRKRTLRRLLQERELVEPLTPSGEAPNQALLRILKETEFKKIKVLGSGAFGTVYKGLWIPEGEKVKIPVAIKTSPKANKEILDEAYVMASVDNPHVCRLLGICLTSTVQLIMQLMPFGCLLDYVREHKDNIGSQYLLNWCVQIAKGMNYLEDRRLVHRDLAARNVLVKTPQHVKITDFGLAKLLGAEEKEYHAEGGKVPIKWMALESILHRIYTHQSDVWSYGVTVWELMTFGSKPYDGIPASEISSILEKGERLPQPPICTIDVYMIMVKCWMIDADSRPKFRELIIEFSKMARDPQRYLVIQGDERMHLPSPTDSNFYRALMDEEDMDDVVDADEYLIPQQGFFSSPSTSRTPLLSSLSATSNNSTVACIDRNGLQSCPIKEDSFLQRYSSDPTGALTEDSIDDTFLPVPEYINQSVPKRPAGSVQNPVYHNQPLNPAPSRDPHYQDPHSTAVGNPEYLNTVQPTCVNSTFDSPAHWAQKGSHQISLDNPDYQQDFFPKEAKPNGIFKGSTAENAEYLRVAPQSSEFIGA
T2 sequence (P00533 25-1210 T790M/C797S/L858R): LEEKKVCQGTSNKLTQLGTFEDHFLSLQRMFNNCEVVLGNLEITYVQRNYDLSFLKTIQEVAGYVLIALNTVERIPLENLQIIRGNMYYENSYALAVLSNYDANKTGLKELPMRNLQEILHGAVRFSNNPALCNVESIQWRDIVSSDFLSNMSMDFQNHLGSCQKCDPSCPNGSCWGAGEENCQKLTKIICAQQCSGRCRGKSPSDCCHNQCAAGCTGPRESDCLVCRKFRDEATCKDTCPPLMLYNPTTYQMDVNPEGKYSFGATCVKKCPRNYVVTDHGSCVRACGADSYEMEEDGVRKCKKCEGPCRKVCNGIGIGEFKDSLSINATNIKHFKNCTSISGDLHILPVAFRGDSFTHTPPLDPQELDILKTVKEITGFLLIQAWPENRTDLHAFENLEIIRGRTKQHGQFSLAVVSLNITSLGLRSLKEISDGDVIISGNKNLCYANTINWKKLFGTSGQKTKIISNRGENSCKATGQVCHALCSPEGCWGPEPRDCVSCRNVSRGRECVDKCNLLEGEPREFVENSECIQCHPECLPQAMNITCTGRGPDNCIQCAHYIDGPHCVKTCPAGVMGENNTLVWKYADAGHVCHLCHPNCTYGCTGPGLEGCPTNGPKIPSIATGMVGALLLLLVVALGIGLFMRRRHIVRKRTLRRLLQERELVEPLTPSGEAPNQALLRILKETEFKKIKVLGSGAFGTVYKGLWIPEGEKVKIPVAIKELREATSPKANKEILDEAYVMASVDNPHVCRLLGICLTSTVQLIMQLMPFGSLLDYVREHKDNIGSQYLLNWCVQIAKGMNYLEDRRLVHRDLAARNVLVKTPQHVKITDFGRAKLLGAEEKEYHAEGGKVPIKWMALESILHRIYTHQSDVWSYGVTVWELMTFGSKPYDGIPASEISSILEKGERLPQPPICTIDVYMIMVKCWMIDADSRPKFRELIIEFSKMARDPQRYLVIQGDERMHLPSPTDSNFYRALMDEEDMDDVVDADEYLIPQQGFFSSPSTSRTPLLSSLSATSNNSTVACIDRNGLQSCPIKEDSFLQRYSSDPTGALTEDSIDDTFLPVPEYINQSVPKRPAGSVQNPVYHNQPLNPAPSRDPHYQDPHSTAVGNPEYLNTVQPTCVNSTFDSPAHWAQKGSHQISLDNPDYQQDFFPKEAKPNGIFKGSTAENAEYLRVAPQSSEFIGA
T1 sequence (P00533 with tags, fused parts or gaps DEL746-750): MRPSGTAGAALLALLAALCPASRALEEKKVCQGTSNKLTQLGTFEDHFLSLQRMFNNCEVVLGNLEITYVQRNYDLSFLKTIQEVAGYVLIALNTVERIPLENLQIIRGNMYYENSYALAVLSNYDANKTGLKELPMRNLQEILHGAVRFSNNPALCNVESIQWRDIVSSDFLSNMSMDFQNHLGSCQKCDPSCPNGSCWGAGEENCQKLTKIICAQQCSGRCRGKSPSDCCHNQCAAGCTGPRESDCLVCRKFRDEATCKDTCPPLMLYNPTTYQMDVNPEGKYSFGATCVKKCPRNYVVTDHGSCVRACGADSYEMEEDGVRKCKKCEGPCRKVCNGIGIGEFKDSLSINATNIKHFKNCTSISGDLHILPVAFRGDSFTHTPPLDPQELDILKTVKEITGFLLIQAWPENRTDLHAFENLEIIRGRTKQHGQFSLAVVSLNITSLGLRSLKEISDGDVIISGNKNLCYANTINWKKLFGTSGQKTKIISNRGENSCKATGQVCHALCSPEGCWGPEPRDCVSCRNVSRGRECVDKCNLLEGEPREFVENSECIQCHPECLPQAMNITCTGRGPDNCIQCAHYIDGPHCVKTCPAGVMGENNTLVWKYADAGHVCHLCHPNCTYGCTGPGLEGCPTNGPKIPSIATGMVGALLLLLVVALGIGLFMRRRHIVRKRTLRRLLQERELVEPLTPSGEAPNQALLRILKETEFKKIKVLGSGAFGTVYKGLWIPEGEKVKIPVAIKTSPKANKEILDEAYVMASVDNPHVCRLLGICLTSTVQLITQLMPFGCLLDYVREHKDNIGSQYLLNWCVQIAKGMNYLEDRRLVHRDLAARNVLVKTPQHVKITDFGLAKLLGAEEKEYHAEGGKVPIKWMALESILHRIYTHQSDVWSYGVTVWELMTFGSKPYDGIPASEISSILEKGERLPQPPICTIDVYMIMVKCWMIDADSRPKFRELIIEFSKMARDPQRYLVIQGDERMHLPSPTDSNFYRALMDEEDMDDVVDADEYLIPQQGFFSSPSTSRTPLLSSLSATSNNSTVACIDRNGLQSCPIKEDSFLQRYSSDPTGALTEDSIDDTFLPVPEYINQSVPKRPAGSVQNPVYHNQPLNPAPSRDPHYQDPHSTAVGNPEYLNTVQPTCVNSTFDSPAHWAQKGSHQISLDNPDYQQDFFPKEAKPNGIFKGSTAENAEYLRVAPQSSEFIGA

Row | SMILES | IC50 [1, 7] [nM] | IC50 [2, 8] [nM] | IC50 [3, 9] [nM] | IC50 [4, 10] [nM] | IC50 [5, 11] [nM] | IC50 [6, 12] [nM] | IC50 [1, 13] [nM] | IC50 [2, 14] [nM] | IC50 [3, 15] [nM] | IC50 [4, 16] [nM] | IC50 [5, 17] [nM] | IC50 [6, 18] [nM]
1 | COc1nc(N2CCC(N3CCN(C)CC3)CC2)ccc1Nc1ncc(F)c(Nc2ccc3nccnc3c2N(C)S(C)(=O)=O)n1 [Compound I-175] | 500 to 2500 | 500 to 2500 | 500 to 2500 | 500 to 2500 | 50 to 500 | 500 to 2500 | – | – | – | – | – | –
2 | C=Cc1cc(Nc2nc(Nc3ccc4nccnc4c3N(C)S(C)(=O)=O)c3cc[nH]c3n2)c(OC(F)(F)F)cc1N1CCC(N2CCN(C)CC2)CC1 [II-2-9] | – | – | – | – | – | – | 50 to 500 | ≤ 50 | 50 to 500 | ≤ 50 | ≤ 50 | ≤ 50
3 | COc1nc(N2CCC(N3CCN(C)CC3)CC2)ccc1Nc1nc(Nc2ccc3nccnc3c2N(C)S(C)(=O)=O)c2sccc2n1 [II-1-4] | – | – | – | – | – | – | 500 to 2500 | 500 to 2500 | 500 to 2500 | 500 to 2500 | 500 to 2500 | 500 to 2500
4 | C=Cc1cc(Nc2ncc(Cl)c(Nc3ccc4nccnc4c3N(C3CC3)S(C)(=O)=O)n2)c(OC(F)(F)F)cc1N1CCC(N2CCN(C)CC2)CC1 [Compound I-304] | – | – | – | – | – | – | 50 to 500 | 50 to 500 | 50 to 500 | ≤ 50 | 50 to 500 | ≤ 50
5 | CN(c1c(Nc2nc(Nc3ccc(S(=O)(=O)NC4CC4)cc3)ncc2Br)ccc2nccnc12)S(C)(=O)=O [Compound I-50] | 50 to 500 | 50 to 500 | 50 to 500 | ≤ 50 | 500 to 2500 | 50 to 500 | – | – | – | – | – | –
6 | CN1CCN(C2CCN(c3ccc(Nc4ncc(Cl)c(Nc5ccc6nccnc6c5N(C)S(C)(=O)=O)n4)c(F)c3F)CC2)CC1 [Compound I-356] | – | – | – | – | – | – | 50 to 500 | 50 to 500 | ≤ 50 | ≤ 50 | ≤ 50 | 50 to 500
7 | CCc1cc(Nc2nc(Nc3ccc4nccnc4c3N(C)S(C)(=O)=O)c3occc3n2)c(OC(F)(F)F)cc1N1CCC(N2CCN(C)CC2)CC1 [II-1-41] | – | – | – | – | – | – | 500 to 2500 | 50 to 500 | 50 to 500 | 500 to 2500 | 50 to 500 | 500 to 2500
8 | CN1CCN(Cc2cc(Nc3ncc(Br)c(Nc4ccc5nccnc5c4N(C)S(C)(=O)=O)n3)cc(C(F)(F)F)c2)CC1 [Compound I-82] | 50 to 500 | 50 to 500 | 50 to 500 | ≤ 50 | 50 to 500 | 50 to 500 | – | – | – | – | – | –
9 | COc1cc(N2CCC(N3CCN(C)CC3)CC2)c(C)cc1Nc1nc(Nc2ccc3nccnc3c2N(C)S(C)(=O)=O)c2[nH]ccc2n1 [II-1-19] | – | – | – | – | – | – | 500 to 2500 | 500 to 2500 | 500 to 2500 | 50 to 500 | 500 to 2500 | 500 to 2500
10 | COc1nc(N2CCC(N3CCN(C)CC3)CC2)c(C)cc1Nc1ncc(Cl)c(Nc2ccc3nccnc3c2N(C2CC2)S(C)(=O)=O)n1 [Compound I-240] | 500 to 2500 | 500 to 2500 | 500 to 2500 | 500 to 2500 | 500 to 2500 | 500 to 2500 | – | – | – | – | – | –
11 | CN1CCN(C2CCN(c3cccc(Nc4ncc(Br)c(Nc5ccc6nccnc6c5N(C)S(C)(=O)=O)n4)c3)CC2)CC1 [Compound I-78] | 50 to 500 | ≤ 50 | 50 to 500 | ≤ 50 | 50 to 500 | 50 to 500 | – | – | – | – | – | –
12 | COc1cc(N2CCC(N3CCN(C)CC3)CC2)c(C)cc1Nc1nccc(Nc2ccc3nccnc3c2N(C)S(C)(=O)=O)n1 [Compound I-340] | – | – | – | – | – | – | ≤ 50 | 50 to 500 | ≤ 50 | ≤ 50 | 50 to 500 | ≤ 50
13 | COc1cc(N2CCC(N3CCN(C)CC3)CC2)c(C)cc1Nc1nc(Nc2ccc3nccnc3c2N(C)S(C)(=O)=O)c2occc2n1 [II-1-25] | – | – | – | – | – | – | 50 to 500 | 50 to 500 | 50 to 500 | 50 to 500 | ≤ 50 | 50 to 500
14 | CC1CN(C)CCc2ccc(Nc3ncc(Br)c(Nc4ccc5nccnc5c4N(C)S(C)(=O)=O)n3)cc21 (stereo not drawn) [Compound I-93] | ≤ 50 | ≤ 50 | ≤ 50 | ≤ 50 | ≤ 50 | ≤ 50 | – | – | – | – | – | –
15 | COc1cc(N2CCC(O)CC2)ccc1Nc1ncc(Br)c(Nc2ccc3nccnc3c2N(C)S(C)(=O)=O)n1 [Compound I-44] | 50 to 500 | ≤ 50 | 50 to 500 | ≤ 50 | ≤ 50 | ≤ 50 | – | – | – | – | – | –
16 | COc1cc(N2CCC(N3CCN(C)CC3)CC2)c(C2CC2)cc1Nc1nccc(Nc2ccc3nccnc3c2N(C)S(C)(=O)=O)n1 [Compound I-343] | – | – | – | – | – | – | 50 to 500 | 50 to 500 | 50 to 500 | 50 to 500 | 50 to 500 | 50 to 500
17 | CN1CCN(C2CCN(c3ccc(Nc4ncc(Br)c(Nc5ccc6nccnc6c5N(C)S(C)(=O)=O)n4)c(OC(F)(F)F)c3)CC2)CC1 [Compound I-7] | 50 to 500 | 50 to 500 | 50 to 500 | 50 to 500 | ≤ 50 | 50 to 500 | – | – | – | – | – | –
18 | C=Cc1cc(Nc2nc(Nc3ccc4nccnc4c3N(C)S(C)(=O)=O)c3occc3n2)c(OC(F)(F)F)cc1N1CCC(N2CCN(C)CC2)CC1 [II-1-42] | – | – | – | – | – | – | 50 to 500 | 50 to 500 | 50 to 500 | 50 to 500 | 50 to 500 | 50 to 500
19 | COc1nc(N2CCC(N3CCN(C)CC3)CC2)ccc1Nc1ncc(Br)c(Nc2ccc3nccnc3c2N(C)S(C)(=O)=O)n1 [Compound I-4] | 50 to 500 | 50 to 500 | 50 to 500 | 50 to 500 | ≤ 50 | 50 to 500 | – | – | – | – | – | –

More lines, now with the values ahead:

Row | IC50 [1, 7] [nM] | IC50 [2, 8] [nM] | IC50 [3, 9] [nM] | IC50 [4, 10] [nM] | IC50 [5, 11] [nM] | IC50 [6, 12] [nM] | IC50 [1, 13] [nM] | IC50 [2, 14] [nM] | IC50 [3, 15] [nM] | IC50 [4, 16] [nM] | IC50 [5, 17] [nM] | IC50 [6, 18] [nM] | SMILES
20 | 500 to 2500 | 50 to 500 | 50 to 500 | 50 to 500 | 500 to 2500 | 50 to 500 | – | – | – | – | – | – | COc1cc2c(cc1Nc1ncc(Br)c(Nc3ccc4nccnc4c3N(C)S(C)(=O)=O)n1)CN(C)CC2 [Compound I-89]
21 | 50 to 500 | 50 to 500 | 50 to 500 | 50 to 500 | 50 to 500 | 50 to 500 | – | – | – | – | – | – | CCc1cc(Nc2ncc(Cl)c(Nc3ccc4nccnc4c3N(C)S(=O)(=O)C3CC3)n2)c(OC(F)(F)F)cc1N1CCC(N2CCN(C)CC2)CC1 [Compound I-121]
22 | 50 to 500 | 50 to 500 | 50 to 500 | 50 to 500 | ≤ 50 | ≤ 50 | – | – | – | – | – | – | CCc1cc(Nc2ncc(Cl)c(Nc3ccc4nccnc4c3N(C)S(=O)(=O)C(C)C)n2)c(OC)cc1N1CCC(N(C)C)C1 (stereo not drawn) [Compound I-143]
23 | 500 to 2500 | 50 to 500 | 500 to 2500 | 500 to 2500 | 50 to 500 | 500 to 2500 | – | – | – | – | – | – | COc1cc(N2CCC(N(C)C)C2)c(C)cc1Nc1ncc(Cl)c(Nc2ccc3nccnc3c2N(C)S(=O)(=O)C(F)(F)F)n1 (stereo not drawn) [Compound I-268]
24 | – | – | – | – | – | – | ≤ 50 | ≤ 50 | ≤ 50 | ≤ 50 | ≤ 50 | ≤ 50 | CCc1cc(Nc2ncc(OC)c(Nc3ccc4nccnc4c3N(C)S(C)(=O)=O)n2)c(OC)cc1N1CCC(N2CCN(C)CC2)CC1 [Compound I-333]
25 | ≤ 50 | ≤ 50 | ≤ 50 | ≤ 50 | ≤ 50 | ≤ 50 | – | – | – | – | – | – | CCc1cc(Nc2ncc(Cl)c(Nc3ccc4nccnc4c3N(CC)S(C)(=O)=O)n2)c(OC)cc1N1CCN(C)CC1 [Compound I-232]
26 | 50 to 500 | ≤ 50 | 50 to 500 | ≤ 50 | ≤ 50 | ≤ 50 | – | – | – | – | – | – | COc1cc(N2CCC(N(C)C)C2)c(C)cc1Nc1ncc(Br)c(Nc2ccc3nccnc3c2N(C)S(=O)(=O)C2CC2)n1 (stereo not drawn) [Compound I-222]
27 | ≤ 50 | ≤ 50 | ≤ 50 | ≤ 50 | ≤ 50 | 50 to 500 | – | – | – | – | – | – | CCc1cc(Nc2ncc(F)c(Nc3ccc4nccnc4c3N(C)S(C)(=O)=O)n2)c(OC)cc1N1CCC(N(C)C)CC1 [Compound I-184]
